Results reported in patent US9115092B2, “Substituted quinazoline and pyrido-pyrimidine derivatives” (Asana Biosciences, LLC, priority 2010, dated 2015).

Assays:
[1] = test system: PC3 cells; test: XTT assay for cell viability, PC3 cells; assay type: cell-based, human; settings: Homo sapiens, PC-3, cell viability
Summary of the method: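 PC3 cells seeded at 1000 cells/well, grown 24 h, then exposed to serial dilutions of compound for 96 h. Viability read by XTT dye at 37° C, absorbance 465 nm. EC50 from sigmoidal dose-response fit.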

[2] = target: T1, mTOR kinase (Homo sapiens, UniProt P42345); test: mTOR kinase TR-FRET assay; assay type: biochemical; settings: read-out: mTO R
T1 construct: purchased Millipore, USA
Summary of the method: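 TR-FRET read-out (340 nm excitation, 615/665 nm emission) of Thr389 phosphorylation of a ULight-labeled p70 S6K peptide (50 nM) by mTOR, 20 μM ATP, 60 min room temperature after 60 min compound preincubation. Buffer HEPES pH 7.5 with MnCl2, EGTA; IC50 by sigmoidal dose-response.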

[3] = target: T2, PI3Kα (wild-type), P110/P85α (Homo sapiens, UniProt P42336); test: PI3 Kinase TR-FRET assay, PI3Kα (wild-type); assay type: biochemical
T2 construct: made in house; host or cells: SF9 insect cells
T2 sequence (P42336 whole entry): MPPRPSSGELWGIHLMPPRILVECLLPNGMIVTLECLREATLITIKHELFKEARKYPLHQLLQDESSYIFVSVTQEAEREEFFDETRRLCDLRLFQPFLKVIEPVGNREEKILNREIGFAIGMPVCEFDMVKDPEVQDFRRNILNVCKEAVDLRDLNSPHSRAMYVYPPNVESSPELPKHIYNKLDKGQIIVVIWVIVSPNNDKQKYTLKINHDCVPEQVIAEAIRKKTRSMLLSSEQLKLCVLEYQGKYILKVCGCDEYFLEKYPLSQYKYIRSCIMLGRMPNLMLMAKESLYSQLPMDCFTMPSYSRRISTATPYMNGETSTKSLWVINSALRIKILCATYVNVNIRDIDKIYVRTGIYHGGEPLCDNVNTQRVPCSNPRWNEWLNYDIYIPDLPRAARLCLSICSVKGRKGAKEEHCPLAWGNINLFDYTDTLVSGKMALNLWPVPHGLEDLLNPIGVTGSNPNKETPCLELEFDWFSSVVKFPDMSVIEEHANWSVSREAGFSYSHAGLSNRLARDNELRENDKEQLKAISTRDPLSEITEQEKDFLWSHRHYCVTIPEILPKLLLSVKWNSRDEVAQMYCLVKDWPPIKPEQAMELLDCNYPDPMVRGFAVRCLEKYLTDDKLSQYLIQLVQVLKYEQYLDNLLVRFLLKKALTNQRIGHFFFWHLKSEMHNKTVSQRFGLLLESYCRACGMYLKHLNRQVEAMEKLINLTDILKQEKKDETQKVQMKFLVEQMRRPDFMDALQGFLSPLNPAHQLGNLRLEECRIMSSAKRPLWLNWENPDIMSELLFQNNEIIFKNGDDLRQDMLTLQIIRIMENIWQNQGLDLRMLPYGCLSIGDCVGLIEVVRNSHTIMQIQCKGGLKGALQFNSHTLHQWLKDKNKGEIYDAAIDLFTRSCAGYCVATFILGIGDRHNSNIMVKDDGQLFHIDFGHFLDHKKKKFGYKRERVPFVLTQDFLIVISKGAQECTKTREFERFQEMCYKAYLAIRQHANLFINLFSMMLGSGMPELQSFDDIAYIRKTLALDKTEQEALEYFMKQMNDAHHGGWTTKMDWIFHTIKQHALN
T2 sequence (P27986 whole entry partner): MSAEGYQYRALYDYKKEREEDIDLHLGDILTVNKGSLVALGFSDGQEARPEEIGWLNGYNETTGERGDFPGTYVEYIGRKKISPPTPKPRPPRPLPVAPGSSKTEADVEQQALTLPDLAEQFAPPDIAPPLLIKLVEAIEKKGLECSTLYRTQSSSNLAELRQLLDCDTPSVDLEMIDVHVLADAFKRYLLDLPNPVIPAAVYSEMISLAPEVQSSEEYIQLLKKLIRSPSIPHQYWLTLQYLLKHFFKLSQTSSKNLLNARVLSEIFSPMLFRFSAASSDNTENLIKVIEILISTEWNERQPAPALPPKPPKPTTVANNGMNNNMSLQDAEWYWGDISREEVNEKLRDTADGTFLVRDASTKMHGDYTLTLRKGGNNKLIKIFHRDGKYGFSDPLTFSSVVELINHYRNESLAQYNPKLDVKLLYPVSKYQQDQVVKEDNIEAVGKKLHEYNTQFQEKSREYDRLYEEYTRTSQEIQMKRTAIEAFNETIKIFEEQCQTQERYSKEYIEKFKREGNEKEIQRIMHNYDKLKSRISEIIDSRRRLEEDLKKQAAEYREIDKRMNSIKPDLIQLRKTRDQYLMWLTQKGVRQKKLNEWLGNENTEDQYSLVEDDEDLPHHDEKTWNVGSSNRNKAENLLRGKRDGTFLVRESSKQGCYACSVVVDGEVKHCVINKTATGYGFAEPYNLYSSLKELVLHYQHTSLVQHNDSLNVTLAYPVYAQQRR
Summary of the method: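 TR-FRET read-out of PIP3 formation via biotin-PIP3 displacement (665/615 nm ratio) gave IC50 curves. Enzyme: 5 ng wild-type P110/P85α from Sf9 cells, 60 min RT with compound and PIP2 (MgCl2 40 mM, DTT 5 mM), then 30 min RT kinase reaction at 10 μM ATP and 10 μM PIP2.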

[4] = target: PI3 kinase isoform δ (Homo sapiens, UniProt O00329); test: PI3 Kinase TR-FRET assay, isoform δ; assay type: biochemical; settings: read-out: inhibition of PI3 kinase isoform δ, IC50
Sequence of PI3 kinase isoform δ (O00329 whole entry, the tested form may be a part, canonical isoform): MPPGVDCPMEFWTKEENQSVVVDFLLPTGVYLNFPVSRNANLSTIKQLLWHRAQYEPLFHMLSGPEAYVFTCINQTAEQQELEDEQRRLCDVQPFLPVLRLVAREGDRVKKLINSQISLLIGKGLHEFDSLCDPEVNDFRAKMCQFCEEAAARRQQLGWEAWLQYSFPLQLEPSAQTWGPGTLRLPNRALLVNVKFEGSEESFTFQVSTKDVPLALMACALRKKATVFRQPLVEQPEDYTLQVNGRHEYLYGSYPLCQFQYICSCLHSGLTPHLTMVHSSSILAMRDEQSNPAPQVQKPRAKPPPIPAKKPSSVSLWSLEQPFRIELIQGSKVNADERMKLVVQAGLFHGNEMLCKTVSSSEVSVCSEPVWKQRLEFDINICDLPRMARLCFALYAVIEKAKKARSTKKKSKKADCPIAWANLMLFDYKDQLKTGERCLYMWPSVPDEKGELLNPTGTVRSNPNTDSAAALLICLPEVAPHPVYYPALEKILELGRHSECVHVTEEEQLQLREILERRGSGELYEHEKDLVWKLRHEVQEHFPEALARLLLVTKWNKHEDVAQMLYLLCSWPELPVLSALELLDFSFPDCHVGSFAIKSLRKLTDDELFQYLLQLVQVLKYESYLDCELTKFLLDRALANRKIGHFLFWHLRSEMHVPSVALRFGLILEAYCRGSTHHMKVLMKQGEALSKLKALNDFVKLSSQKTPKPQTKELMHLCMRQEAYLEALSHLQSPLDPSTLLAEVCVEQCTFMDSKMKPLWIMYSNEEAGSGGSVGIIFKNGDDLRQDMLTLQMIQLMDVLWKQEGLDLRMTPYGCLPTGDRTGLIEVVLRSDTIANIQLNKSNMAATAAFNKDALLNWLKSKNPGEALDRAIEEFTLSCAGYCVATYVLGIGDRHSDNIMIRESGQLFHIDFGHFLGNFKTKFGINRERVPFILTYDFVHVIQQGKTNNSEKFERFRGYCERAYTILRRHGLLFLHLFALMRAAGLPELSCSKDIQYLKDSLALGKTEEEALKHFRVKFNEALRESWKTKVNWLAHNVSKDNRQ
Sequence of PI3 kinase isoform δ (P27986 whole entry partner, the tested form may be a part, canonical isoform): as the sequence (P27986 whole entry partner) above
Procedure: (§1) The ability of compounds of the invention to inhibit PI3K activity was determined in a homogeneous TR-FRET assay using a PI3K assay kit (Millipore, USA; cat #33-016) according to manufacturer's instructions. PI3-Kinases (isoforms α, β, γ and δ) catalyze the phosphorylation of phosphatidylinositol, PIP2 to PIP3 in the presence of ATP and Mg^2+. The PIP3 product is detected by displacement of biotin-PIP3 from an energy transfer complex consisting of Europium labeled anti-GST monoclonal antibody, a GST-tagged PH domain, biotinylated PIP3 and Streptavidin-APC. Excitation of Europium in the complex results in an energy transfer to the APC and a fluorescence emission at 665 nm. The PIP3 product displaces biotin-PIP3 from the complex resulting in a loss of energy transfer and thus a decrease in signal.
(§2) To test for the ability of compounds to inhibit the activity of PI3Kα (wild-type), exemplary compounds of formula (I) were dissolved in DMSO and directly distributed into 384-well plates at a volume of 0.5 μL. 14.5 μL of P110/P85α/PIP2 mixture in buffer (obtained from the Millipore kit) containing MgCl2 (40 mM) and DTT (5 mM) was added to compound wells and incubated for 60 min at room temperature. P110/P85α was expressed in SF9 insect cells and purified nickel column extraction. Five ng of wild-type P110/P85α was used in the assay. The kinase reaction was started by the addition of ATP. The assay concentrations of both PIP2 and ATP were 10 μM. The reaction mixture was incubated for 30 min at room temperature and was terminated by the addition of stop mix and detection mix. Fluorescence was measured at 615 and 665 nm upon excitation at 340 nm in a Victor™ V5 fluorometer (Perkin Elmer, USA). The fluorescence emission ratio at 665 to 615 nm, proportional to the kinase activity, was plotted against the compound concentration to generate dose-response curves and IC50 values were determined using GraphPad Prism® 5 software.
(§3) The activity of PI3 kinase isoforms β, γ and δ were assayed in a similar manner to the assay protocol described above for PI3Kα, by substituting the appropriate p110/p85 isoform for the p110α/p85α. Compounds of formula (I) caused inhibition of PI3 kinase isoforms β, γ and δ as determined by these assays. For example, the compounds of examples 3, 51, 54, 111, 113, 115, and 253 each caused inhibition of PI3 kinase isoform β with IC50 values <50 nM. The compounds of examples 104, 133, 146 and 152 each caused inhibition of PI3 kinase isoform β with IC50 values <500 nM. The compounds of examples 3, 51, 54, 104, 111, 113, 115, 133, 253, and 152 each caused inhibition of PI3 kinase isoform γ with IC50 values <500 nM. […] The compounds of examples 2, 3, 51, 54, 111, 113, and 253 each caused inhibition of PI3 kinase isoform […] with IC50 values >1 μM.

[5] = test system: pAKT(5473) (phosphorylated at serine 473), PC3 cells; test: In-cell Western assay, pAKT(5473) in PC3 cells; assay type: cell-based; settings: Homo sapiens, PC-3, In-cell Western, read-out: pAkt-S473
Procedure: (§4) Cells from human prostate cancer cell line PC3 (American Type Culture Collection (ATCC), Manassas, Va. 20108 USA) were seeded at an optimal density of 22,000 cell/well in 96-well plates containing Ham's F12K medium (90 μL) and incubated overnight. The compound dilutions were carried out in 100% DMSO followed by a dilution in the medium. Test compounds were added in serial dilutions to the wells and incubated for 2 h. The cells were washed and fixed with 4% paraformaldehyde. After incubation at room temperature for 1 h in the dark, blocking was done for 2 h at room temperature. Primary antibodies for phosphorylated (p) AKT(5473) (phosphorylated at serine 473), pAKT(T308) (phosphorylated at threonine 308) and for pS6RP(S235/236) (phosphorylated at serine 235/236) (commercially available from Cell Signaling Technology®, whose protocol was followed for the in-cell western assay, were diluted to the required concentration and added to the corresponding wells followed by overnight incubation at 4° C. Eu-labeled rabbit (PE) (Perkin-Elmer USA catalog #AD0106) secondary antibody was added and incubated for 2 h at room temperature. Delfia® enhancement solution (cat #1244-105, Perkin Elmer USA) was subsequently added to the plate before taking the reading at 615 nm with excitation wavelength of 340 nm, after which 0.5 μg/mL of Hoechst® 33258 dye (Catalog #86140-5, Sigma) was added to the plate and fluorescence emission was read at 460 nm with 355 nm excitation, to evaluate the correction factor. IC50 values were calculated using a sigmoidal dose-response curve fit in GraphPad Prism® v5 software.

[6] = target: PI3 kinase isoform β (Homo sapiens, UniProt P42338); test: PI3 Kinase TR-FRET assay, isoform β; assay type: biochemical; settings: read-out: inhibition of PI3 kinase isoform β, IC50
Sequence of PI3 kinase isoform β (P42338 whole entry, canonical isoform): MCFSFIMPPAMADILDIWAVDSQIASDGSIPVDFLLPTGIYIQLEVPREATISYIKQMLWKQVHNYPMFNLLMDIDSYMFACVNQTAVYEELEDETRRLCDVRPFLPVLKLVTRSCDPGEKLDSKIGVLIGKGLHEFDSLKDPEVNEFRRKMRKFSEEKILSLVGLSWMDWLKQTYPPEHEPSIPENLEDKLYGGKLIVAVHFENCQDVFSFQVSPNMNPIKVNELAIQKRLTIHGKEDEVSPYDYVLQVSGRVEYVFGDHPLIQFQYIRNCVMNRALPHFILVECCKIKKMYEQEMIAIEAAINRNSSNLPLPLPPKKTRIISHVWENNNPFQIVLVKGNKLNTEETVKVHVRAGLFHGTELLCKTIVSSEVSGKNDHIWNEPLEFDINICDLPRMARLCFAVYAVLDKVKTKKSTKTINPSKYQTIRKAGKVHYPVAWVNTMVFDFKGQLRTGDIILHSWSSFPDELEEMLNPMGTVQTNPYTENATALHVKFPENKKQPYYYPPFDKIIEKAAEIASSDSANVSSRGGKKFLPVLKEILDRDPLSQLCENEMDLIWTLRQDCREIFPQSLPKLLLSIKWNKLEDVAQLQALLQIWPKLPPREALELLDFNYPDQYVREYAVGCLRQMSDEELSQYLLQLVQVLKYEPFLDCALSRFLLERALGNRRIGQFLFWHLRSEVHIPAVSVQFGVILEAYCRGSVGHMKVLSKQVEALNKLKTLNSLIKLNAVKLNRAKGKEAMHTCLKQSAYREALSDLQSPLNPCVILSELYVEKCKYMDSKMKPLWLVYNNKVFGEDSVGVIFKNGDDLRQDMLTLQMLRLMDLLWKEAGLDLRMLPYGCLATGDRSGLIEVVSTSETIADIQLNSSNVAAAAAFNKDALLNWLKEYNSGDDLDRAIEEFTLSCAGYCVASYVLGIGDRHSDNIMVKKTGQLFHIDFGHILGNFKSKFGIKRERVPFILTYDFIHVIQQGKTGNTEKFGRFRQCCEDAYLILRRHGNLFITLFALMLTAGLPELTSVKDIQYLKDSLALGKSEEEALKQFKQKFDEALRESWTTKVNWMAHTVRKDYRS
Sequence of PI3 kinase isoform β (P27986 whole entry partner, canonical isoform): as the sequence (P27986 whole entry partner) above
Procedure: as §1, §2, §3

[7] = test system: pS6RP(S235/236), PC3 cells; test: In-cell Western assay, pS6RP(S235/236) in PC3 cells; assay type: cell-based, human; settings: Homo sapiens, PC-3, In-cell Western
Summary of the method: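 Overnight-seeded PC3 cells were treated 2 h with serially diluted compound, then fixed and immunostained with phospho-specific primary antibodies and Eu-labelled secondary. Time-resolved Eu signal read at 615 nm (ex 340 nm), normalised by Hoechst 33258 staining (ex 355/em 460 nm); IC50 from sigmoidal dose-response fit.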

[8] = test system: pAKT(T308) (phosphorylated at threonine 308), PC3 cells; test: In-cell Western assay, pAKT(T308) in PC3 cells; assay type: cell-based; settings: Homo sapiens, PC-3, In-cell Western
Procedure: as §4

[9] = test system: pS6RP in PC3 tumor; test: In vivo PK/PD study, PC3 tumor bearing mice, pS6RP; settings: Mus musculus, 50 mg/kg po, at 3 and 8 hours
Procedure: PC3 cells were cultured at 37° C. in a 5% CO2 incubator using Hams F12 K medium. Ten million (10^7) cells were injected subcutaneously to the right flank region of athymic male mice (Harlan, age: 6-7 weeks, weight: about 20 g). Tumor bearing mice were randomized when the tumor volume reached about 250 mm^3 and three mice were used per each time point. Test compounds of formula (I) were formulated in 40% HPCD in 1×PBS, pH 7.4 and dosed orally at 50 mg/kg single dose (dose volume−10 mL/kg). Plasma and tumor samples were collected at 0 (vehicle control animals), 1, 4 and 24 hours post dosing. Blood was drawn (retro orbital) to a tube containing 0.2% EDTA for plasma collection. The tumor was excised from the mouse and immediately frozen in liquid nitrogen for PD analysis. Tumor and plasma drug concentrations were measured for PK analysis using LC-MS.
Snap frozen tumor samples were pulverized in a mortar (Belart) containing liquid nitrogen and tumor powder was stored at −80° C. until analysis. Pre coated ELISA kits (Cell Signaling Technology; pAKT(T308), CST#7135; pAKT(5473), CST#7134 and pS6RP, CST#7205) were used for PD analysis. Tumor powder was transferred to Eppendorf® tubes and lysis buffer (1 mL) was added to the powder. Protease and phosphatase inhibitors (SIGMA) and phenylmethanesulfonylfluoride (PMSF) were added to tumor powder and mixed by vortexing followed by sonication (15 sec). Samples were kept on an ice bath for 30 min. Supernatant was separated after centrifugation at 10,000 rpm for 20 min at 4° C. Supernatant was re-centrifuged and fresh supernatant was aliquoted to different tubes. Total protein was estimated using a BCA kit (Thermo Scientific) and 50 μg total protein was loaded to each well. ELISA analysis was carried out as per manufacturer's instructions. The detection for pAKT was based on chemiluminescence and pS6RP was based on absorbance. Qualitative assessments of the suppression of pAKT(T308), pAKT(5473), and pS6RP were also carried out by standard Western blot analyses.
For example, the compound of Example 1, at 50 mg/kg po, caused about 50% inhibition of pAkt(5473) at 1 and 4 hours and >50% inhibition of pS6RP at 1, 4 and 24 hours. Also, the compound of Example 2, at 50 mg/kg po, caused about 25-30% inhibition of pAkt(5473) at 4 and 24 hours and >50% inhibition of pS6RP at 1, 4 and 24 hours. The compound of example 51, at 30 mg/kg po, caused >50% inhibition of pS6RP at 2, 4 and 24 hours. Also, the compounds of examples 133, 146, 147, and 228, at 50 mg/kg po, each caused >50% inhibition of pS6RP at 3 and 8 hours.

Row | Structure (SMILES) | IC50 [1] [nM] | IC50 [2] [nM] | IC50 [3] [nM] | IC50 [4] [nM] | IC50 [5] [nM] | IC50 [6] [nM] | IC50 [7] [nM] | IC50 [8] [nM] | inhibition at 50 mg/kg [9] [%]
1 | CN(C)C(=O)c1ccc(NC(=O)Nc2ccc(-c3nc(N4CCOCC4)c4ccc(-c5cccc(S(C)(=O)=O)c5)cc4n3)cn2)cc1 [Example 3] | 100 to 500 | 50 to 200 | < 50 | > 1000 |  |  |  |  | 
2 | CN(C)C(=O)c1ccc(NC(=O)Nc2ccc(-c3nc(N4CCOCC4)c4ccc(-c5cccnc5F)cc4n3)cn2)cc1 [Example 54, 4-(3-{5-[7-(2-fluoro-pyridin-3-yl)-4-morpholin-4-yl-quinazolin-2-yl]-pyridin-2-yl}-ureido)-N,N-dimethyl-benzamide] | 100 to 500 | 50 to 200 | < 50 | > 1000 |  |  |  |  | 
3 | CN(C)C(=O)c1ccc(NC(=O)Nc2ccc(-c3nc(N4CCOCC4)c4ncc(-c5cccc(S(C)(=O)=O)c5)cc4n3)cc2F)cc1 [Example 104, 4-(3-(2-fluoro-4-(7-(3-(methylsulfonyl)phenyl)-4-morpholino-pyrido[3,2-d]pyrimidin-2-yl)phenyl)ureido)-N,N-dimethyl-benzamide] | 201 to 10000 | < 50 | < 50 |  | < 100 | < 500 | 201 to 10000 |  | 
4 | CN(C)C(=O)c1ccc(NC(=O)Nc2ccc(-c3nc(N4CCOCC4)c4ncc(-c5cccnc5F)cc4n3)cn2)cc1 [Example 111, 4-(3-(5-(7-(2-fluoropyridin-3-yl)-4-morpholino-pyrido[3,2-d]pyrimidin-2-yl)pyridin-2-yl)ureido)-N,N-dimethyl-benzamide] | 201 to 10000 | < 50 | < 50 | > 1000 | 201 to 10000 |  | 201 to 10000 |  | 
5 | CN(C)C(=O)c1ccc(NC(=O)Nc2ccc(-c3nc(N4CCOCC4)c4cc(F)c(-c5cnn(C)c5)cc4n3)cn2)cc1 [Example 113, 4-(3-(5-(6-fluoro-7-(1-methyl-1H-pyrazol-4-yl)-4-morpholino-quinazolin-2-yl)pyridin-2-yl)ureido)-N,N-dimethyl-benzamide] | 201 to 10000 | 50 to 200 | < 50 | > 1000 | < 100 |  | < 100 |  | 
6 | COc1ncc(-c2ccc3c(N4CCOCC4)nc(-c4ccc(NC(=O)Nc5ccc(C(=O)N(C)C)cc5F)cc4)nc3c2)cn1 [Example 147, 3-fluoro-4-(3-(4-(7-(2-methoxypyrimidin-5-yl)-4-morpholino-quinazolin-2-yl)phenyl)ureido)-N,N-dimethyl-benzamide] |  | < 50 | 50 to 200 |  | < 100 |  |  | 201 to 10000 | > 50
7 | CN(C)C(=O)c1ccc(NC(=O)Nc2ccc(-c3nc(N4CCOCC4)c4ccc(-c5ccc(CO)o5)cc4n3)cc2)c(F)c1 [Example 228, 3-fluoro-4-(3-(4-(7-(5-(hydroxymethyl)furan-2-yl)-4-morpholino-quinazolin-2-yl)phenyl)ureido)-N,N-dimethyl-benzamide] |  | < 50 | < 50 |  | 501 to 5000 |  |  |  | > 50
8 | CN(C)C(=O)c1ccc(NC(=O)Nc2ccc(-c3nc(N4CCOCC4)c4ccc(-c5cccc(S(C)(=O)=O)c5)cc4n3)cn2)cc1F [Example 253, 2-fluoro-N,N-dimethyl-4-(3-(5-(7-(3-(methylsulfonyl)phenyl)-4-morpholino-quinazolin-2-yl)pyridin-2-yl)ureido)-benzamide] |  | 201 to 10000 | < 50 | > 1000 | < 100 |  |  |  | 
